Columns and labels:
PDE4B2 [1] = target: T1, PDE4B2 (Homo sapiens, UniProt Q07343); experiment: IMAP fluorescence polarisation PDE4 subtype assay; type: biochemical
Experimental: Inhibition of PDE4 subtypes by the compound of formula (I) was tested using IMAP technology, which is based on the high affinity binding of phosphate by immobilized metal coordination complexes on nanoparticles. The binding reagent complexes with phosphate groups on nucleotide monophosphate generated from cyclic nucleotides (cAMP/cGMP) through phosphodiesterases. With fluorescence polarisation detection, binding causes a change in the rate of the molecular motion of the phosphate bearing molecule, and results in an increase in the fluorescence polarization value observed for the fluorescent label attached to the substrate.
Stocks of the compound of formula (I) were prepared in 100% DMSO. All assays were performed in 3% (final) DMSO for the IMAP assay. The compound was tested in duplicate against the PDE isoform panel at a range of concentrations (10^−10, 10^−9, 10^−8, 10^−7 M).

human PBMC = experiment: Viability, serum-free, hPBMC, LPS (ATP); type: cell-based
Experimental: Viability, Serum-Free, hPBMC, LPS
The viability of the cells from the TNF-α assay is measured in the wells using the ATP vialight kit (Perkin Elmer, ATP-lite M, cat. no 6016949). The assay detects the amount of ATP using a bioluminescent method that utilizes an enzyme, luciferase, which catalyses the formation of light from ATP and luciferin according to the following reaction:
The emitted light intensity is linearly related to the ATP concentration and is measured using a luminometer. The effect (inhibition of viability) of a test compound was calculated using equation 1:
[formula] • where • So=Emitted light intensity reflecting the ATP concentration in the presence of 0.1% DMSO, • Sc=Emitted light intensity reflecting the ATP concentration in the presence of 10 μM Actinomycin in 0.1% DMSO and • Sx=Emitted light intensity reflecting the ATP concentration in the presence of test compound in 0.1% DMSO.
This model describes a sigmoidal curve with an adjustable baseline, a. […]
[formula] • where • C=concentration of test compound • % Effect=normalized response calculated as described in Equation 1 • Emin=min response as compound concentration approaches 0 • Emax=max response as concentration of tested compound is increasing • EC50=Concentration of tested compound giving a response in the middle of Emin and Emax • nH=Hill coefficient or curve slope.

TNF-α = experiment: LPS-induced TNF-α in ferrets after single oral administration; conditions: oral 1, 3 and 10 mg/kg; 1 hour after LPS (3 mg/kg ip)
PDE4D1 = PDE4D1 (Homo sapiens, UniProt Q08499); type: biochemical
Chain of PDE4D1 (Q08499 1-584 isoform Q08499-4): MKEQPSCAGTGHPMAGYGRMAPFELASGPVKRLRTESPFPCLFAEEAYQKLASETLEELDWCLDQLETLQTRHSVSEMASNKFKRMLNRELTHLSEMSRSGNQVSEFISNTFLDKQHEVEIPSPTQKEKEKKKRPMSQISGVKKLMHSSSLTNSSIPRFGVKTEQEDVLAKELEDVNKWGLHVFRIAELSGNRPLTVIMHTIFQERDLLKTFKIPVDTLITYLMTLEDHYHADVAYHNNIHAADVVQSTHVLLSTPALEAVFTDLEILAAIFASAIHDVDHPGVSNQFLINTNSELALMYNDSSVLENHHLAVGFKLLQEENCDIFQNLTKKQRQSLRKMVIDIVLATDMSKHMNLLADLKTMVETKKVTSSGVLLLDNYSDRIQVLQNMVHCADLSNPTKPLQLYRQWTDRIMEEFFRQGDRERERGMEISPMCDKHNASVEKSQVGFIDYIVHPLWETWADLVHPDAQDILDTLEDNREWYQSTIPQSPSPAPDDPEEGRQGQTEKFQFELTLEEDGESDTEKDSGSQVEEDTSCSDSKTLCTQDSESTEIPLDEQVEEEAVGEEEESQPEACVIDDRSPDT
Experimental: (§1) Enzyme Preparations: Partially purified human recombinant phosphodiesterases (PDEs) were obtained by cloning cDNA and expressing in S. frugiperda insect cells using a baculovirus expression system. Cells are harvested from culture by centrifuging at 400×g for 5 minutes. Cell pellet is resuspended in 20 ml of RIPA Buffer (150 mM NaCl, 10 mM Tris, 0.1% NP-40, pH8.3), 4 ml/200 ml of culture, plus protease inhibitors (100 μl/10 ml) and incubated on ice for 10-20 minutes then spun at 3500×g for 10 minutes at 4° C. Supernatant is kept and the pellet thrown away.
(§2) Tritium-labelled cyclic AMP is hydrolysed to 5′-AMP o by PDE. The 5′-AMP is then further hydrolysed to adenosine by nucleotidase in snake venom. An anion-exchange resin binds all charged nucleotides and leaves [^3H]adenosine as the only labelled compound to be counted by liquid scintillation.
(§3) 50 μl of diluted PDE enzyme was incubated with 50 μl of [^3H]-cAMP (specific activity 25 Ci/mmol) and 11 μl of 50% DMSO (or compound dilution) for 20 minutes at 30° C. The enzyme was diluted in 20 mM Tris HCl pH7.4 (×2.2 final concentration) and [3H]-cAMP was diluted in 10 mM MgCl2, 40 mM Tris HCl pH 7.4 (×2.2 final concentration). Reactions were carried out in Greiner 96 deep well 1 ml master-block. The plates were centrifuged for 9 seconds before the 20 minutes incubation. […] After incubation 200 μl Dowex resin (1×8, 200-400 mesh) was added and the plate shaken for 20 minutes then centrifuged for 3 minutes at 1000×g. 50 μl of supernatant was removed and added to 200 μl of MicroScint-20 in white plates (Greiner 96well Optiplate) and shaken for 30 minutes before reading on Perkin Elmer TopCount Scintillation Counter. IC50 values were calculated using GraphPad Prism software (version 8).

PDE4D2 = PDE4D2 (Homo sapiens, UniProt Q08499); type: biochemical
Experimental: as §1, §2, §3

PDE4B2 [2] = target: T1, PDE4B2; type: biochemical
Experimental: as §1, §2, §3

PDE4D3 [3] = target: T2, PDE4D3 (Homo sapiens, UniProt Q08499); type: biochemical
T2 sequence (Q08499 1-673 isoform Q08499-2): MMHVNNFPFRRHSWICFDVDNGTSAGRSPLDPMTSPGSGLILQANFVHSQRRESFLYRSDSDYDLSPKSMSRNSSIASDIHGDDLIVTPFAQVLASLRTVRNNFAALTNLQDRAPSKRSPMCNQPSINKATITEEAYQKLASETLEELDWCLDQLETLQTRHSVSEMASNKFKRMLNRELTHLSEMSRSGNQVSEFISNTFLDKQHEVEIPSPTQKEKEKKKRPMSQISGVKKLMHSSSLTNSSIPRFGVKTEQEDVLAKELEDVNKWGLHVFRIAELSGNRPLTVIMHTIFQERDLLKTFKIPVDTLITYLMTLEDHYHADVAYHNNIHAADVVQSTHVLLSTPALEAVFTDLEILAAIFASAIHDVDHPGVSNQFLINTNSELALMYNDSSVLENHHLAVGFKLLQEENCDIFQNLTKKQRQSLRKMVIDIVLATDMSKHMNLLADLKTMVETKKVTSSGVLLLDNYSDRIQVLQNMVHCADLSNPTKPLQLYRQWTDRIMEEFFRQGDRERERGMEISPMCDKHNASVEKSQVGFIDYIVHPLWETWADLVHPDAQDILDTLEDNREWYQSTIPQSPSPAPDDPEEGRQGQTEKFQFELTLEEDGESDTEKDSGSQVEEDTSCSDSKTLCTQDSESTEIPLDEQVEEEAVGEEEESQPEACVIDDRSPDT
Experimental: as §1, §2, §3

PDE4D5 = PDE4D5 (Homo sapiens, UniProt Q08499); type: biochemical
Chain of PDE4D5 (Q08499 1-745 isoform Q08499-6): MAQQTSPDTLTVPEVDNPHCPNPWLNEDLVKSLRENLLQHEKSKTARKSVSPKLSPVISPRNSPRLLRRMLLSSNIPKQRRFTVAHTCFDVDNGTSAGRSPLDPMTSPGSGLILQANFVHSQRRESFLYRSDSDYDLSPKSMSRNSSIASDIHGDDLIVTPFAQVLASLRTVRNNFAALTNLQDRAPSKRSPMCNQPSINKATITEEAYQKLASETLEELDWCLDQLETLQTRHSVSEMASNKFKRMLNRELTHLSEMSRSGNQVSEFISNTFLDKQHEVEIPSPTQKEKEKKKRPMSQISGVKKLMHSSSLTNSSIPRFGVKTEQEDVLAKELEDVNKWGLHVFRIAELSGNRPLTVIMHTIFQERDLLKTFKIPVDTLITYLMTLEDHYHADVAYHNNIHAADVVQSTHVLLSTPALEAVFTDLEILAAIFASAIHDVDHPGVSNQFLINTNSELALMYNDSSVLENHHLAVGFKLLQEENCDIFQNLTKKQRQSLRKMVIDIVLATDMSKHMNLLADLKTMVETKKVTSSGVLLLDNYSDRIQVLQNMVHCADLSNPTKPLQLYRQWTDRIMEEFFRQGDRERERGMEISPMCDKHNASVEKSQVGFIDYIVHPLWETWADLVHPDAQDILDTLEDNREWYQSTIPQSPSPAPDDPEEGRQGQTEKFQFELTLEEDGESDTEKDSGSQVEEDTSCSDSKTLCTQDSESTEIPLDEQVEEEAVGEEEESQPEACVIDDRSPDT
Experimental: as §1, §2, §3

PDE4D4 = PDE4D4 (Homo sapiens, UniProt Q08499); type: biochemical
Experimental: as §1, §2, §3

PDE4D7 = PDE4D7 (Homo sapiens, UniProt Q08499); type: biochemical
Chain of PDE4D7 (Q08499 1-748 isoform Q08499-11): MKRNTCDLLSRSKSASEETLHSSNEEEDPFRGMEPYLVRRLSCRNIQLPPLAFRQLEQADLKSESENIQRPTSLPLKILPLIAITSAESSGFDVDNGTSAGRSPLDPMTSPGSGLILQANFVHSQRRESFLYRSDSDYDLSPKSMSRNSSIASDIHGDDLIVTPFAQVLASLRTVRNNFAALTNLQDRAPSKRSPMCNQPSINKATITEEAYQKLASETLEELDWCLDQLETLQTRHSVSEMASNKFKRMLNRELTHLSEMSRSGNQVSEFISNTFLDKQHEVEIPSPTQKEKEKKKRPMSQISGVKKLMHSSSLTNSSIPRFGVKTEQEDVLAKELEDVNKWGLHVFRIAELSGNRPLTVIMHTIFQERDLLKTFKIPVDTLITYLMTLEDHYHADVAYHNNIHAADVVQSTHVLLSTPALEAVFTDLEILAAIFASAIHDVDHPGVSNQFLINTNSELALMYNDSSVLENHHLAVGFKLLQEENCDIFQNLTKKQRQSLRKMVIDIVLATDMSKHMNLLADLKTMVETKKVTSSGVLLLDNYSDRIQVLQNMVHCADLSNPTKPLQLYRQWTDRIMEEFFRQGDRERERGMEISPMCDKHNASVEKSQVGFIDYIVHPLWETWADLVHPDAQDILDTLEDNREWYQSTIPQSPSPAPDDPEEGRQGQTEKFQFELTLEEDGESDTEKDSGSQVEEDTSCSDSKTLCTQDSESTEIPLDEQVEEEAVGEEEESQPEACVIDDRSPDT
Experimental: as §1, §2, §3

PDE4C2 = PDE4C2 (Homo sapiens, UniProt Q08493); type: biochemical
Chain of PDE4C2 (Q08493 107-712): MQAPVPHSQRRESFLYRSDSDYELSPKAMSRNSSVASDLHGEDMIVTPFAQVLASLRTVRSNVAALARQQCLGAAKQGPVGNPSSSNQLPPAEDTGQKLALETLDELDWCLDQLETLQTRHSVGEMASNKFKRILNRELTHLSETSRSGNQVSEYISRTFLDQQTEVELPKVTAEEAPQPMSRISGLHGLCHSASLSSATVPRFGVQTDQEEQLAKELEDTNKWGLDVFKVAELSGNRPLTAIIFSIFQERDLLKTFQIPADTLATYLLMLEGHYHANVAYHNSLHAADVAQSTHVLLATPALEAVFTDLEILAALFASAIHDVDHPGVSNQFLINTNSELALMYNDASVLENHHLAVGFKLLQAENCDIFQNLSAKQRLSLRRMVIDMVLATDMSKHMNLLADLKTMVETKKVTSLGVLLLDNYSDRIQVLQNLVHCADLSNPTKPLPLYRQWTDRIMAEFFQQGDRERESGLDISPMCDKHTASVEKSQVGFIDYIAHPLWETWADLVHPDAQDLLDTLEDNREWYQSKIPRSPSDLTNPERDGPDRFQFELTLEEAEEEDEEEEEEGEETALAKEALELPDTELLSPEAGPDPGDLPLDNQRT
Experimental: as §1, §2, §3

PDE4A4 = PDE4A4 (Homo sapiens, UniProt P27815); experiment: IMAP fluorescence polarisation PDE4 subtype assay; type: biochemical
Chain of PDE4A4 (P27815 whole entry): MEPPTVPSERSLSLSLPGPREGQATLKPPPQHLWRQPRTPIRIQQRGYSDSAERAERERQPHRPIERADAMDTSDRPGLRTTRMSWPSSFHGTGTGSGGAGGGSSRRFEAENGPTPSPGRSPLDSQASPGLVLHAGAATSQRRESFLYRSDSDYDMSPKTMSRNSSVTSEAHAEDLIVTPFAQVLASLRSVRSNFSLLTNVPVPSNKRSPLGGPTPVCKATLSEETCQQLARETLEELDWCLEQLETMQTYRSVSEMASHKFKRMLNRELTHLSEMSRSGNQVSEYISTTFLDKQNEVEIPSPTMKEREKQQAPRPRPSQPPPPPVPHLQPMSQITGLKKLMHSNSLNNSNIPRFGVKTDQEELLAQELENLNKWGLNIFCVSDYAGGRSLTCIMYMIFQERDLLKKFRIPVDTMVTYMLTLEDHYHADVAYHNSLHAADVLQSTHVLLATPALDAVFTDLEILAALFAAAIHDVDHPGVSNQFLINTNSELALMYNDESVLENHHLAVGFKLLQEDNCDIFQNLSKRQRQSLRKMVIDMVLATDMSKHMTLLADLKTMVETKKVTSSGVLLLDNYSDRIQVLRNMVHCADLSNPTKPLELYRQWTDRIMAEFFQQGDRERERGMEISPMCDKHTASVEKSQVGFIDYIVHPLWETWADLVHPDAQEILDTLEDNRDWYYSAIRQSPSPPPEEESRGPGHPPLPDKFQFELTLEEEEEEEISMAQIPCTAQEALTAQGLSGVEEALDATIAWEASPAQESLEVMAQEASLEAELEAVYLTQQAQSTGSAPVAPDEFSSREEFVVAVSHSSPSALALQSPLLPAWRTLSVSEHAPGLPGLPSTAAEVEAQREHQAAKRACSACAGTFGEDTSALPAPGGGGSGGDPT
Experimental: The binding reagent complexes with phosphate groups on nucleotide monophosphate generated from cyclic nucleotides (cAMP/cGMP) through phosphodiesterases. With fluorescence polarisation detection, binding causes a change in the rate of the molecular motion of the phosphate bearing molecule, and results in an increase in the fluorescence polarization value observed for the fluorescent label attached to the substrate. […] All assays were performed in 3% (final) DMSO for the IMAP assay.

PDE4D3 [4] = target: T2, PDE4D3; experiment: IMAP fluorescence polarisation PDE4 subtype assay; type: biochemical; conditions: compound 10^−7 M

T1 sequence (Q07343 1-564 isoform Q07343-2): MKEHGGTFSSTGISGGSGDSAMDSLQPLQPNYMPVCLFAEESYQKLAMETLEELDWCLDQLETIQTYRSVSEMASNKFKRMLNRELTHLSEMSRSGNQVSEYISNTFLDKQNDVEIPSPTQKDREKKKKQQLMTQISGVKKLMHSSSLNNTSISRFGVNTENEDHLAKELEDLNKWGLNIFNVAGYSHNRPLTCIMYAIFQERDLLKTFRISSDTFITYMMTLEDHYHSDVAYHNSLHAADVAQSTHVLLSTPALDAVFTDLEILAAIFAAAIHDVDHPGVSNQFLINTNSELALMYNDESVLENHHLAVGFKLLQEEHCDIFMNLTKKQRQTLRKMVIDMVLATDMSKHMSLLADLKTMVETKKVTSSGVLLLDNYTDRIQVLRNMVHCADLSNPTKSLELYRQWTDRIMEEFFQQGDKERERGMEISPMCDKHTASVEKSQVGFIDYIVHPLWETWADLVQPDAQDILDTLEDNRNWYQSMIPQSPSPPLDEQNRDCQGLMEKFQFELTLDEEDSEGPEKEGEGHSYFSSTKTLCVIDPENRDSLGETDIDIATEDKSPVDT

O=C(Cc1c(Cl)c[n+]([O-])cc1Cl)c1ccc(OC(F)F)c2c1OC1(CCS(=O)(=O)CC1)O2 [Compound (I), 2-(3,5-Dichloro-1-oxido-pyridine-4-yl)-1-(7-difluoro-methoxy-2′,3′,5′,6′-tetrahydro-spiro[1,3-benzodioxole-2,4′-(4H)-thiopyran-1′,1′-dioxide]-4-yl)ethanone]
inhibition at 0.1 µM (PDE4B2 [1]; compound 10^−7 M): 61%
inhibition at 0.01 µM (PDE4B2 [1]; compound 10^−8 M): 41%
inhibition at 0.001 µM (PDE4B2 [1]; compound 10^−9 M): 18%
inhibition at 0.0001 µM (PDE4B2 [1]; compound 10^−10 M): 12%
Viability Emax, % (human PBMC): 7%
EC50 (human PBMC; Homo sapiens, PBMC): > 9990 nM
increase of TNF-α levels observed at 1 hour (TNF-α): attenuated, in a clear dose-related manner
IC50 (PDE4D1): 9 nM
IC50 (PDE4D2): 9 nM
IC50 (PDE4B2 [2]): 6 nM
IC50 (PDE4D3 [3]): 8 nM
IC50 (PDE4D5): 3 nM
IC50 (PDE4D4): 8 nM
IC50 (PDE4D7): 3 nM
IC50 (PDE4C2): 104 nM
inhibition at 0.1 µM (PDE4A4; compound 10^−7 M): 47%
inhibition at 0.01 µM (PDE4A4; compound 10^−8 M): 24%
inhibition at 0.001 µM (PDE4A4; compound 10^−9 M): 0%
inhibition at 0.0001 µM (PDE4A4; compound 10^−10 M): 0%
inhibition at 0.1 µM (PDE4D3 [4]): 74%

From patent publication US20250268876A1, “TREATMENT OF HIDRADENITIS SUPPURATIVA WITH ORISMILAST” (UNION THERAPEUTICS A/S, priority 2021, published 2025)
